The record followed here is ChEMBL document CHEMBL3137667, “[Drug-induced liver injury; fourteenth updated edition of the bibliographic database of liver injuries and related drugs]” (Gastroenterol Clin Biol, 2004).

Series [1] in a line: Highest frequency of moderate liver toxicity observed during clinical trials, expressed as a percentage. [column '% BIOL' in source]. The settings on record: human.
A short description of series [2]: Highest frequency of acute liver toxicity observed during clinical trials, expressed as a percentage. [column '% AIGUE' in source]. As to conditions: human.
For series [3] the following is noted: human, serum.
For series [4] the following is noted: human, serum. The source holds these as a separate data set.
For series [5] the following is noted: human.
The conditions of series [6]: human. The source holds these as a separate data set.
The conditions of series [7]: human. The source holds these as a separate data set.
For series [8] the following is noted: human, serum, 4383 h.
For series [9] the following is noted: human. This is another data set of the same source.
For series [10] the following is noted: human. This is another data set of the same source.
The conditions of series [11]: human. The source holds these as a separate data set.
The conditions of series [12]: human. This is another data set of the same source.
For series [13] the following is noted: human. The source holds these as a separate data set.
For series [14] the following is noted: human. The source holds these as a separate data set.
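Wherever Hepatotoxicity (association with vascular disease) is given: count of indexed literature references reporting vascular liver injury in humans, e.g. peliosis hepatitis, hepatic veno-occlusive disease or Budd-Chiari syndrome.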
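Wherever Hepatotoxicity (benign tumour) is given: value is a count of indexed literature references citing a benign tumour confirmed by histopathology.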
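Wherever Hepatotoxicity (choleostasis) is given: human cholestatic liver injury, shown by histopathology or by peak ALT or AST elevation over alkaline phosphatase ratio below 2, value counts indexed literature reports.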
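Wherever Hepatotoxicity (chronic liver disease) is given: chronic liver injury confirmed by histopathology or persistently raised serum aminotransferase activity beyond 6 months, value given as the count of indexed literature references.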
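Wherever Hepatotoxicity (cirrhosis) is given: value is a count of indexed literature references reporting cirrhosis confirmed by histopathology.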
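Wherever Hepatotoxicity (cytolytic) is given: human cytolytic liver injury, shown by histopathology or by a ratio above 5 of peak ALT or AST elevation to alkaline phosphatase elevation, value counts indexed references.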
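Wherever Hepatotoxicity (granulomatous hepatitis) is given: value is a count of indexed literature references reporting granulomatous liver disease confirmed by histopathology.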
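Wherever Hepatotoxicity (malignant tumour) is given: malignant tumour confirmed by histopathology, value gives the count of indexed literature references reporting it.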
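Wherever Hepatotoxicity (severe hepatitis) is given: human clinical data: severe hepatitis, meaning potentially life-threatening liver failure or clinically observed cases, the value counts how many indexed literature references report it.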
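Wherever Hepatotoxicity (steatosis) is given: steatosis confirmed by histopathology, value is the count of indexed references.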

`Cc1cc(NS(=O)(=O)c2ccc(N)cc2)nc(C)n1` [SULFISOMIDINE]: the “Hepatotoxicity (moderate)” value in series [1] turned out to be 0%; in series [3], 0. In addition, the “Hepatotoxicity (acute)” value in [2] turned out to be 0%; in series [4], 1. Besides, the “Hepatotoxicity (cytolytic)” value in [5] is recorded as 0. The “Hepatotoxicity (choleostasis)” value in series [6] is recorded as 0. The “Hepatotoxicity (severe hepatitis)” value in series [7] came to 0. Further, the “Hepatotoxicity (chronic liver disease)” value in series [8] came to 0. In [9], the “Hepatotoxicity (cirrhosis)” value stood at 0. Also, the “Hepatotoxicity (granulomatous hepatitis)” value in series [10] came to 0. Besides, the “Hepatotoxicity (association with vascular disease)” value in [11] is on record as 0. Also, the “Hepatotoxicity (steatosis)” value in series [12] came out at 0. For the same molecule, in [13], the “Hepatotoxicity (malignant tumour)” value was found to be 0. In addition, the “Hepatotoxicity (benign tumour)” value in series [14] is on record as 0.
Take NEDAPLATIN: the “Hepatotoxicity (moderate)” value in [1] is recorded as 19.2%; in series [3], 1. Also, the “Hepatotoxicity (acute)” value in [2] is reported as 0%; in series [4] it was 0. The “Hepatotoxicity (cytolytic)” value in series [5] is 0. The “Hepatotoxicity (choleostasis)” value in series [6] is 0. Moreover, the “Hepatotoxicity (severe hepatitis)” value in series [7] was found to be 0. Besides, the “Hepatotoxicity (chronic liver disease)” value in series [8] is on record as 0. Besides, the “Hepatotoxicity (cirrhosis)” value in series [9] turned out to be 0. Moreover, the “Hepatotoxicity (granulomatous hepatitis)” value in [10] is reported as 0. In [11], the “Hepatotoxicity (association with vascular disease)” value is on record as 0. Further, the “Hepatotoxicity (steatosis)” value in [12] was 0. In series [13], the “Hepatotoxicity (malignant tumour)” value stood at 0. The “Hepatotoxicity (benign tumour)” value in series [14] is reported as 0.
Consider `N=C(N)NCCCCCCC(=O)NC(O)C(=O)NCCCCNCCCN` (stereo not drawn), for which the “Hepatotoxicity (moderate)” value in [1] is reported as 3.6%; in series [3], 1. Moreover, the entries for the “Hepatotoxicity (acute)” value in series [2] and in [4] were 0% and 0, respectively. The “Hepatotoxicity (cytolytic)” value in series [5] is 0. Besides, the “Hepatotoxicity (choleostasis)” value in series [6] turned out to be 0. The “Hepatotoxicity (severe hepatitis)” value in series [7] is recorded as 0. Also, the “Hepatotoxicity (chronic liver disease)” value in series [8] was 0. For the same molecule, in series [9], the “Hepatotoxicity (cirrhosis)” value was found to be 0. Also, the “Hepatotoxicity (granulomatous hepatitis)” value in series [10] was found to be 0. In addition, in series [11], the “Hepatotoxicity (association with vascular disease)” value worked out at 0. Also, the “Hepatotoxicity (steatosis)” value in series [12] is recorded as 0. In addition, the “Hepatotoxicity (malignant tumour)” value in [13] is recorded as 0. Further, in [14], the “Hepatotoxicity (benign tumour)” value is recorded as 0.
`CC(=O)c1ccc2c(c1)N(CCCN1CCC(CCO)CC1)c1ccccc1S2` [PIPERACETAZINE]: the “Hepatotoxicity (moderate)” value is reported as 39% in [1] and 1 in series [3]. The “Hepatotoxicity (acute)” value was determined as 0% in series [2] and 0 in [4]. Besides, the “Hepatotoxicity (cytolytic)” value in series [5] is given as 0. Moreover, the “Hepatotoxicity (choleostasis)” value in series [6] is listed as 0. The “Hepatotoxicity (severe hepatitis)” value in series [7] was 0. Besides, in series [8], the “Hepatotoxicity (chronic liver disease)” value is recorded as 0. In addition, the “Hepatotoxicity (cirrhosis)” value in [9] was determined as 0. Besides, the “Hepatotoxicity (granulomatous hepatitis)” value in series [10] turned out to be 0. The “Hepatotoxicity (association with vascular disease)” value in series [11] was determined as 0. In addition, the “Hepatotoxicity (steatosis)” value in series [12] is on record as 0. The “Hepatotoxicity (malignant tumour)” value in [13] is 0. Further, the “Hepatotoxicity (benign tumour)” value in series [14] is given as 0.
Regarding `O=P1(NCCCl)OCCCN1CCCl` (stereo not drawn) [IFOSFAMIDE], the “Hepatotoxicity (moderate)” value in [1] was found to be 3.8%; in series [3], 3. The “Hepatotoxicity (acute)” value amounted to 6% in [2] and 2 in series [4]. In addition, in [5], the “Hepatotoxicity (cytolytic)” value is given as 2. The “Hepatotoxicity (choleostasis)” value in [6] is 0. Besides, the “Hepatotoxicity (severe hepatitis)” value in [7] was 1. Further, in series [8], the “Hepatotoxicity (chronic liver disease)” value is 0. The “Hepatotoxicity (cirrhosis)” value in [9] is reported as 0. In [10], the “Hepatotoxicity (granulomatous hepatitis)” value is 0. In addition, the “Hepatotoxicity (association with vascular disease)” value in series [11] is listed as 0. Besides, the “Hepatotoxicity (steatosis)” value in series [12] worked out at 0. Further, in [13], the “Hepatotoxicity (malignant tumour)” value came to 0. In addition, the “Hepatotoxicity (benign tumour)” value in [14] came out at 0.
Turning to `COc1ccc(-n2nc(CCC(=O)N(C)O)cc2-c2ccc(Cl)cc2)cc1` [TEPOXALIN], the entries for the “Hepatotoxicity (moderate)” value in series [1] and in [3] were 2.5% and 1, respectively. In addition, the “Hepatotoxicity (acute)” value in series [2] was found to be 0%; in [4] it was 0. Also, the “Hepatotoxicity (cytolytic)” value in series [5] is recorded as 0. For the same molecule, in [6], the “Hepatotoxicity (choleostasis)” value was determined as 0. The “Hepatotoxicity (severe hepatitis)” value in [7] is 0. Also, in series [8], the “Hepatotoxicity (chronic liver disease)” value is given as 0. Further, the “Hepatotoxicity (cirrhosis)” value in series [9] is on record as 0. The “Hepatotoxicity (granulomatous hepatitis)” value in series [10] is reported as 0. Also, the “Hepatotoxicity (association with vascular disease)” value in [11] is reported as 0. Further, the “Hepatotoxicity (steatosis)” value in [12] is 0. Also, the “Hepatotoxicity (malignant tumour)” value in series [13] is listed as 0. Moreover, the “Hepatotoxicity (benign tumour)” value in series [14] was found to be 0.
`CO/N=C(\C(=O)N[C@@H]1C(=O)N2C(C(=O)[O-])=C(C[N+]3(C)CCCC3)CS[C@H]12)c1csc(N)n1`: the “Hepatotoxicity (moderate)” value in series [1] (Liver) was found to be 37.5%; in series [3], 52. Also, the “Hepatotoxicity (acute)” value in series [2] (Liver) is listed as 0%; in series [4], 0. Besides, the “Hepatotoxicity (cytolytic)” value in series [5] came to 0. Besides, in series [6], the “Hepatotoxicity (choleostasis)” value was 0. Further, in [7] (Liver), the “Hepatotoxicity (severe hepatitis)” value was 0. Further, in series [8], the “Hepatotoxicity (chronic liver disease)” value stood at 0. In addition, the “Hepatotoxicity (cirrhosis)” value in [9] came out at 0. In [10], the “Hepatotoxicity (granulomatous hepatitis)” value was determined as 0. In [11], the “Hepatotoxicity (association with vascular disease)” value was 0. Further, the “Hepatotoxicity (steatosis)” value in series [12] came out at 0. Moreover, in series [13], the “Hepatotoxicity (malignant tumour)” value was 0. Besides, in series [14], the “Hepatotoxicity (benign tumour)” value is recorded as 0.
Turning to `Nc1ncc2ncn(COCCO)c2n1` [DESCICLOVIR], the entries for the “Hepatotoxicity (moderate)” value in series [1] and in series [3] were 15.4% and 1, respectively. Also, the “Hepatotoxicity (acute)” value was 0% in series [2] and 0 in series [4]. Moreover, the “Hepatotoxicity (cytolytic)” value in [5] is listed as 0. Further, in [6], the “Hepatotoxicity (choleostasis)” value was 0. The “Hepatotoxicity (severe hepatitis)” value in series [7] turned out to be 0. Further, in series [8], the “Hepatotoxicity (chronic liver disease)” value is given as 0. Further, in [9], the “Hepatotoxicity (cirrhosis)” value is on record as 0. Also, the “Hepatotoxicity (granulomatous hepatitis)” value in series [10] is 0. In addition, the “Hepatotoxicity (association with vascular disease)” value in series [11] is listed as 0. In addition, the “Hepatotoxicity (steatosis)” value in series [12] was found to be 0. In series [13], the “Hepatotoxicity (malignant tumour)” value worked out at 0. The “Hepatotoxicity (benign tumour)” value in series [14] is reported as 0.
Consider `C[C@@H](O)[C@H]1C(=O)N2C(C(=O)O)=C(S[C@@H]3CN[C@H](C(=O)Nc4cccc(C(=O)O)c4)C3)[C@H](C)[C@H]12`, for which the “Hepatotoxicity (moderate)” value in [1] is given as 0%; in [3], 4. Besides, the “Hepatotoxicity (acute)” value worked out at 0% in series [2] and 0 in series [4]. Further, the “Hepatotoxicity (cytolytic)” value in [5] is given as 0. In series [6], the “Hepatotoxicity (choleostasis)” value was 0. For the same molecule, in series [7], the “Hepatotoxicity (severe hepatitis)” value was found to be 0. Besides, in [8], the “Hepatotoxicity (chronic liver disease)” value worked out at 0. Also, the “Hepatotoxicity (cirrhosis)” value in [9] worked out at 0. For the same molecule, the “Hepatotoxicity (granulomatous hepatitis)” value in series [10] is listed as 0. Further, in series [11], the “Hepatotoxicity (association with vascular disease)” value was 0. The “Hepatotoxicity (steatosis)” value in [12] is recorded as 0. Besides, in [13], the “Hepatotoxicity (malignant tumour)” value stood at 0. Besides, in series [14], the “Hepatotoxicity (benign tumour)” value came to 0.
Consider `O=c1n(CC2CO2)c(=O)n(CC2CO2)n1CC1CO1` (stereo not drawn) [ANAXIRONE], for which the “Hepatotoxicity (moderate)” value in [1] was determined as 0%; in series [3], 1. The “Hepatotoxicity (acute)” value in [2] stood at 0%; in series [4], 0. The “Hepatotoxicity (cytolytic)” value in [5] came out at 0. Besides, in series [6], the “Hepatotoxicity (choleostasis)” value amounted to 0. In addition, the “Hepatotoxicity (severe hepatitis)” value in series [7] was 0. Moreover, the “Hepatotoxicity (chronic liver disease)” value in series [8] amounted to 0. For the same molecule, the “Hepatotoxicity (cirrhosis)” value in [9] turned out to be 0. The “Hepatotoxicity (granulomatous hepatitis)” value in series [10] came to 0. The “Hepatotoxicity (association with vascular disease)” value in series [11] turned out to be 0. Moreover, the “Hepatotoxicity (steatosis)” value in series [12] came to 0. In series [13], the “Hepatotoxicity (malignant tumour)” value amounted to 0. Moreover, the “Hepatotoxicity (benign tumour)” value in series [14] came out at 0.
`O=CN(O)CCCP(=O)(O)O` [FOSMIDOMYCIN]: the “Hepatotoxicity (moderate)” value in [1] is recorded as 7.7%; in [3] it was 1. Besides, the “Hepatotoxicity (acute)” value in [2] came out at 0%; in series [4], 0. Moreover, in [5], the “Hepatotoxicity (cytolytic)” value was determined as 0. In series [6], the “Hepatotoxicity (choleostasis)” value came out at 0. For the same molecule, the “Hepatotoxicity (severe hepatitis)” value in series [7] stood at 0. In addition, the “Hepatotoxicity (chronic liver disease)” value in series [8] was 0. The “Hepatotoxicity (cirrhosis)” value in series [9] was 0. The “Hepatotoxicity (granulomatous hepatitis)” value in series [10] turned out to be 0. For the same molecule, the “Hepatotoxicity (association with vascular disease)” value in series [11] was 0. Further, the “Hepatotoxicity (steatosis)” value in series [12] worked out at 0. Further, the “Hepatotoxicity (malignant tumour)” value in series [13] was 0. Also, the “Hepatotoxicity (benign tumour)” value in series [14] is on record as 0.
For the molecule CHOLESTYRAMINE, the figures for the “Hepatotoxicity (moderate)” value in series [1] and in series [3] were 30% and 11, respectively. Moreover, the “Hepatotoxicity (acute)” value was 0% in series [2] and 0 in series [4]. For the same molecule, the “Hepatotoxicity (cytolytic)” value in series [5] was determined as 0. The “Hepatotoxicity (choleostasis)” value in [6] came out at 0. Further, the “Hepatotoxicity (severe hepatitis)” value in series [7] is given as 0. Moreover, the “Hepatotoxicity (chronic liver disease)” value in [8] worked out at 0. Further, the “Hepatotoxicity (cirrhosis)” value in series [9] amounted to 0. Further, the “Hepatotoxicity (granulomatous hepatitis)” value in series [10] came out at 0. Further, the “Hepatotoxicity (association with vascular disease)” value in series [11] worked out at 0. Moreover, the “Hepatotoxicity (steatosis)” value in [12] came out at 0. Moreover, the “Hepatotoxicity (malignant tumour)” value in [13] was 0. In addition, in series [14], the “Hepatotoxicity (benign tumour)” value amounted to 0.
